US10106515B2, “1-(cyclopent-2-en-1-yl)-3-(2-hydroxy-3-(arylsulfonyl)phenyl)urea derivatives as CXCR2 inhibitors” (GLAXOSMITHKLINE INTELLECTUAL PROPERTY DEVELOPMENT LIMITED, priority 2014, dated 2018)
Where a name gives a salt, the structure may show the parent alone.

Columns and labels:
recombinant human CXCR2 = biological target: T1, recombinant human CXCR2 (Homo sapiens, UniProt P25025); experiment: CXCR2 Tango assay; type: cell-based; conditions: mean pIC50 of multiple test results; stimulated with 80 nM hCXCL1; reporter gene blue/green emission ratio; read-out: pIC50 (CXCR2 Tango assay) (converted)
T1 construct: TEV protease site; Gal4-VP16 transcription factor
T1 sequence (P25025 1-360): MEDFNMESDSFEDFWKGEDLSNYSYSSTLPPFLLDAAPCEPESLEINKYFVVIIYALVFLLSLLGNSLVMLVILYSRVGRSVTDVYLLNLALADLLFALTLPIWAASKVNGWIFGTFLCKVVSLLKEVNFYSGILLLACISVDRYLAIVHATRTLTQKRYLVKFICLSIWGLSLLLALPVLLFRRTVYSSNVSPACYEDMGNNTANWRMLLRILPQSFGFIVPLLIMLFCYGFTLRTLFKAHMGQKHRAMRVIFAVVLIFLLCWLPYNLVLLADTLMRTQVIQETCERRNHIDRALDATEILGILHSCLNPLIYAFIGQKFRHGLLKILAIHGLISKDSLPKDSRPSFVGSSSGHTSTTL
In short: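 Mean pIC50 comes from sigmoidal fits of the blue/green (460/530 nm) CCF4-AM ratio, normalized between hCXCL1-stimulated and DMSO controls. Compounds in 10-point dose response were incubated overnight at 37 °C with recombinant human CXCR2 Tango cells (~10,000/well) and 80 nM hCXCL1, with reporter read-out via arrestin-TEV release of Gal4-VP16.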

[1] = tested on: upregulation of CD11b in GROα stimulated neutrophils in human whole blood; experiment: Human whole blood assay (CD11b upregulation); type: cell-based; conditions: Neutrophil, inhibition of CD11b upregulation, GROα 33 nM final, flow cytometry, read-out: pIC50 (human whole blood assay) (converted)
Experimental: The whole blood assay tested the compounds' ability to inhibit the upregulation of CD11b in GROα stimulated neutrophils in human whole blood.
Blood was withdrawn by venipuncture from consented adults and poured into a Sterilin tube containing an anti-coagulant Heparin (10 uL/mL of blood). All the test compounds were dissolved in DMSO to 4 mM and serial diluted across the plate, 1 in 3 to provide 10 point dose response curves. The compounds were then diluted 100 fold in -PBS [Phosphate buffered saline (without Calcium Chloride and Magnesium Chloride)] after which, 1 uL was dispensed in 96 U bottom Costar plates using an FX.
10 uL of blood was transferred to the compound plate using a multi-channel pipette, gently tapped and incubated for 15 minutes, at 37° C. After 15 minutes, the stimulant GROα was diluted to 100 nM in 0.1% BSA (Albumin Bovine Serum)-PBS and 5 uL is dispensed across the whole plate for a final concentration of 33 nM. The plate was gently tapped and incubated further for 15 minutes at 37° C. The plate was placed on ice for 1 minute before addition of 10 uL of an antibody cocktail consisting of CD11b-FITC (40 ug/mL) purchased from BioLegend (address: Cambridge Bioscience, Munro House, Trafalgar Way, Bar Hill, Cambridge, UK) and CD16-PE purchased from BD Pharmingen (address: The Danby Building, Edmung Halley Road, Oxford Science Park, Oxford, UK) (stock concentration 100 tests, 2 mL stock volume is diluted 1 in 5). The plate was placed on ice for 1 hour in the dark. The cells were then fixed using 200 uL/well of 1×FACS (Flow Activated Cell Sorting) Lyse solution (Becton and Dickinson-BD) and on ice for 20 minutes in the dark. The plate was centrifuged at 1600 rpm for 5 minutes and re-suspended with 200 uL of ice cold PBS. This step was repeated twice and on the final step the plate was re-suspended with 50 uL of ice cold -PBS for flow Cytometric analysis.
Samples were run on a Becton and Dickinson (BD)-Acurri C6 Flow Cytometer using a HyperCyt sampling apparatus (IntelliCyt) with a flow rate 2 uL/sec. CD11b upregulation is monitored in neutrophils and identified using a combination of both side scatter and CD16 expression.

| Structure (SMILES) | IC50 (recombinant human CXCR2) [nM] | IC50 [1] [nM] |
| --- | --- | --- |
| [2H]C([2H])([2H])C1(S(=O)(=O)c2c(Cl)ccc(NC(=O)N[C@@H]3CCC=C3Cl)c2O)CCOCC1 [Compound 41] | ≤ 1 | 25.1 to 2510 |
| CC1=CCC[C@H]1NC(=O)Nc1ccc(Cl)c(S(=O)(=O)C(C)(C)C2CCOC2)c1O (stereo partly drawn) [Compound 59, 1-(4-chloro-2-hydroxy-3-((2-(tetrahydrofuran-3-yl)propan-2-yl)sulfonyl)phenyl)-3-((R)-2-methylcyclopent-2-en-1-yl)urea] | ≤ 1 | 25.1 to 2510 |
| [2H]C([2H])([2H])C1(S(=O)(=O)c2c(Cl)ccc(NC(=O)N[C@@H]3CCC=C3C)c2O)CCOCC1 [Compound 70] | ≤ 1 | 25.1 to 2510 |
| CC1=CCC[C@H]1NC(=O)Nc1ccc(Cl)c(S(=O)(=O)C(C)c2ncccn2)c1O (stereo partly drawn) [Compound 27, 1-(4-chloro-2-hydroxy-3-((1-(pyrimidin-2-yl)ethyl)sulfonyl)phenyl)-3-((R)-2-methylcyclopent-2-en-1-yl)urea] | ≤ 10 | 25.1 to 2510 |
| CC1=CCC[C@H]1NC(=O)Nc1ccc(Cl)c(S(=O)(=O)N2CCN(C)CC2)c1O [Compound 141, (R)-1-(4-chloro-2-hydroxy-3-((4-methylpiperazin-1-yl)sulfonyl)phenyl)-3-(2-methylcyclopent-2-en-1-yl)urea, trifluoroacetic acid salt] | ≤ 10 | 25.1 to 2510 |
| CC1=CCCC1NC(=O)Nc1ccc(Cl)c(S(=O)(=O)N2CC(F)C2)c1O (stereo not shown) [Compound 112, 1-(4-chloro-3-((3-fluoroazetidin-1-yl)sulfonyl)-2-hydroxyphenyl)-3-(2-methylcyclopent-2-en-1-yl)urea] | ≤ 10 | 25.1 to 2510 |
| CC1(S(=O)(=O)c2c(Cl)ccc(NC(=O)N[C@@H]3CCC=C3Cl)c2O)CCOCC1 [Compound 40, (R)-1-(4-chloro-2-hydroxy-3-((4-methyltetrahydro-2H-pyran-4-yl)sulfonyl)phenyl)-3-(2-chlorocyclopent-2-en-1-yl)urea] | ≤ 10 | 25.1 to 2510 |
| CC1(S(=O)(=O)c2c(Cl)ccc(NC(=O)N[C@H]3CCC=C3Cl)c2O)CCOCC1 [Compound 42, (S)-1-(4-chloro-2-hydroxy-3-((4-methyltetrahydro-2H-pyran-4-yl)sulfonyl)phenyl)-3-(2-chlorocyclopent-2-en-1-yl)urea] | – | 25.1 to 2510 |
| COC[C@H](C)S(=O)(=O)c1c(Cl)ccc(NC(=O)N[C@@H]2CCC=C2C)c1O [Compound 186, 1-(4-chloro-2-hydroxy-3-(((S)-1-methoxypropan-2-yl)sulfonyl)phenyl)-3-((R)-2-methylcyclopent-2-en-1-yl)urea] | ≤ 1 | 25.1 to 2510 |
| CC1=CCC[C@H]1NC(=O)Nc1ccc(Cl)c(S(=O)(=O)C(C)(F)F)c1O [Compound 194, (R)-1-(4-chloro-3-((1,1-difluoroethyl)sulfonyl)-2-hydroxyphenyl)-3-(2-methylcyclopent-2-en-1-yl)urea] | ≤ 1 | 25.1 to 2510 |
| CC(C)(C)S(=O)(=O)c1c(C#N)ccc(NC(=O)N[C@@H]2CCC=C2Cl)c1O [Compound 94, (R)-1-(3-(tert-butylsulfonyl)-4-cyano-2-hydroxyphenyl)-3-(2-chlorocyclopent-2-en-1-yl)urea] | ≤ 1 | 25.1 to 2510 |
| CC1=CCCC1NC(=O)Nc1ccc(Cl)c(S(=O)(=O)N2CCC(F)(F)C2)c1O (stereo not shown) [Compound 114, 1-(4-chloro-3-((3,3-difluoropyrrolidin-1-yl)sulfonyl)-2-hydroxyphenyl)-3-(2-methylcyclopent-2-en-1-yl)urea, trifluoroacetic acid salt] | ≤ 10 | 25.1 to 2510 |
| CC1=CCC[C@H]1NC(=O)Nc1ccc(Cl)c(S(=O)(=O)C2CCCOC2)c1O (stereo partly drawn) [Compound 78, 1-(4-chloro-2-hydroxy-3-((tetrahydro-2H-pyran-3-yl)sulfonyl)phenyl)-3-((R)-2-methylcyclopent-2-en-1-yl)urea] | ≤ 10 | 25.1 to 2510 |
| CC1=CCC[C@H]1NC(=O)Nc1ccc(Cl)c(S(=O)(=O)C2(CF)CCOCC2)c1O [Compound 72, (R)-1-(4-chloro-3-((4-(fluoromethyl)tetra-hydro-2H-pyran-4-yl)sulfonyl)-2-hydroxyphenyl)-3-(2-methylcyclopent-2-en-1-yl)urea] | ≤ 10 | 25.1 to 2510 |
| CC1(S(=O)(=O)c2c(Cl)ccc(NC(=O)N[C@@H]3CCC=C3Cl)c2O)CCOC1 (stereo partly drawn) [Compound 39, 1-(4-chloro-2-hydroxy-3-((3-methyltetrahydro-furan-3-yl)sulfonyl)phenyl)-3-((R)-2-chlorocyclopent-2-en-1-yl)urea] | ≤ 1 | 25.1 to 2510 |
| CC1=CCC[C@H]1NC(=O)Nc1ccc(Cl)c(S(=O)(=O)C(C)c2ccccn2)c1O (stereo partly drawn) [Compound 23, 1-(4-chloro-2-hydroxy-3-((1-(pyridin-2-yl)ethyl)sulfonyl)phenyl)-3-((R)-2-methylcyclopent-2-en-1-yl)urea, trifluoroacetic acid salt] | ≤ 1 | 25.1 to 2510 |
| CC1=CCC[C@H]1NC(=O)Nc1ccc(Cl)c(S(=O)(=O)C(C)(C)[C@H]2CCOC2)c1O [Compound 56, 1-(4-chloro-2-hydroxy-3-((2-((S)-tetrahydrofuran-3-yl)propan-2-yl)sulfonyl)phenyl)-3-((R)-2-methylcyclopent-2-en-1-yl)urea] | ≤ 10 | 25.1 to 2510 |
| CC1=CCC[C@H]1NC(=O)Nc1ccc(Cl)c(S(=O)(=O)C(C)(C)C2CCOCC2)c1O [Compound 60, (R)-1-(4-chloro-2-hydroxy-3-((2-(tetrahydro-2H-pyran-4-yl)propan-2-yl)sulfonyl)phenyl)-3-(2-methylcyclopent-2-en-1-yl)urea] | ≤ 1 | 25.1 to 2510 |
| CC1=CCC[C@H]1NC(=O)Nc1ccc(Cl)c(S(=O)(=O)C(C)(C)C)c1O [Compound 57] | ≤ 1 | 25.1 to 2510 |
| CC(C)(C1COC1)S(=O)(=O)c1c(Cl)ccc(NC(=O)N[C@@H]2CCC=C2Cl)c1O [Compound 5, (R)-1-(4-chloro-2-hydroxy-3-((2-(oxetan-3-yl)propan-2-yl)sulfonyl)phenyl)-3-(2-chlorocyclopent-2-en-1-yl)urea] | ≤ 10 | 25.1 to 2510 |
| CC1=CCC[C@H]1NC(=O)Nc1ccc(Cl)c(S(=O)(=O)C2CCN(C3CCC3)CC2)c1O [Compound 82, (R)-1-(4-chloro-3-((1-cyclobutylpiperidin-4-yl)sulfonyl)-2-hydroxyphenyl)-3-(2-methylcyclopent-2-en-1-yl)urea trifluoroacetic acid salt] | ≤ 1 | 25.1 to 2510 |
| CC1=CCCC1NC(=O)Nc1ccc(Cl)c(S(=O)(=O)C2CCOCC2)c1O (stereo not shown) [Compound 110, 1-(4-chloro-2-hydroxy-3-((tetrahydro-2H-pyran-4-yl)sulfonyl)phenyl)-3-(2-methylcyclopent-2-en-1-yl)ureac] | ≤ 10 | 25.1 to 2510 |
| CC1=CCC[C@H]1NC(=O)Nc1ccc(Cl)c(S(=O)(=O)C2(C)CCOCC2)c1O [Compound 69, (R)-1-(4-chloro-2-hydroxy-3-((4-methyltetrahydro-2H-pyran-4-yl)sulfonyl)phenyl)-3-(2-methylcyclopent-2-en-1-yl)urea] | ≤ 1 | 25.1 to 2510 |
| CC1=CCC[C@H]1NC(=O)Nc1ccc(C#N)c(S(=O)(=O)C(C)(C)C)c1O [Compound 191, (R)-1-(3-(tert-butylsulfonyl)-4-cyano-2-hydroxyphenyl)-3-(2-methylcyclopent-2-en-1-yl)urea] | ≤ 1 | 25.1 to 2510 |
| CC1=CCC[C@H]1NC(=O)Nc1ccc(Cl)c(S(=O)(=O)n2ccc3cccnc32)c1O [Compound 90, (R)-1-(3-((1H-pyrrolo[2,3-b]pyridin-1-yl)sulfonyl)-4-chloro-2-hydroxyphenyl)-3-(2-methylcyclopent-2-en-1-yl)urea] | ≤ 1 | 25.1 to 2510 |
